Values quoted from earlier work as cited in article PMC11291603, “Histidine-based ionizable cationic surfactants: novel biodegradable agents for hydrophilic macromolecular drug delivery” (Drug Delivery and Translational Research, 2024).

Legend:
[1] = as specified by the manufacturer
[2] = literature value, no reference given

Aqueous solubility [1] [µg/mL]	pKa of the imidazolium ring [2]	SMILES
1	–	CCCCCCCCC(CO)CCCCCC (centres unmarked) [2-hexyl-1-decanol]
–	6.0-6.1	N[C@@H](Cc1c[nH]cn1)C(=O)O [histidine]
